Structures are written as SMILES.

The assay addresses D(2) dopamine receptor (Homo sapiens, UniProt P14416). The assay can be described thus: Antagonist activity at dopamine D2 receptor. The class given is functional.

Chain of D(2) dopamine receptor (P14416 whole entry): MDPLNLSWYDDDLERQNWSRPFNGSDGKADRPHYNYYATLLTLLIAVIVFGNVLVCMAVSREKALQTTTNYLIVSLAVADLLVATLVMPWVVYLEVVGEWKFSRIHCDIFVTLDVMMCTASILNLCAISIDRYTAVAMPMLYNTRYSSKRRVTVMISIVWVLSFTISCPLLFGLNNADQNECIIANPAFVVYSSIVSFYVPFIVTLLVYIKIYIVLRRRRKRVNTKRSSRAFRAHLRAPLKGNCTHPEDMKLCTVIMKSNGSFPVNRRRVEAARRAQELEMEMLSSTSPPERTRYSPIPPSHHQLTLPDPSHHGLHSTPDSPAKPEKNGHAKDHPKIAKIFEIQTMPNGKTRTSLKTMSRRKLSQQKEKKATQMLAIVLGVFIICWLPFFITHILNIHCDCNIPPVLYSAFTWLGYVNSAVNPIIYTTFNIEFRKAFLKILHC

Usually IC50 stands for the concentration that gives 50% inhibition. A higher IC50 goes with weaker potency. `C=CCN1CCC[C@H]1CNC(=O)c1cc(CCCCl)cc(OC)c1OC` returned an IC50 of 17.1 nM.

Regarding `C=CCN1CCC[C@H]1CNC(=O)c1cc(CCCF)cc(OC)c1OC` [FALLYPRIDE], the IC50 stood at 5 nM.

For the origin of these results see ChEMBL document CHEMBL1156607, “A new multi-gram synthetic route to labeling precursors for the D(2/3) PET agent 18F-fallypride” (Bioorg Med Chem Lett, 2008).
